Test results from US6911209B1, “Method of treating sick sinus syndrome with levosimendan” (Orion Corporation, priority 1999, dated 2005).

Tested on: heart rhythm of a patient
Test: Clinical data: oral levosimendan in a patient with wandering atrial pacemaker, first degree AV block, junctional rhythm
Assay type: in vivo, human
Experimental: The underlying heart rhythm of a patient on intravenous milrinone was wandering atrial pacemaker with a first degree AV block alternating with a junctional rhythm and sinus rhythm. The overall heart rate was around 70 bpm. Because of failure to wean the milrinone the patient was entered into oral levosimendan first at 1 mg followed by 2 mg and subsequently by 4 mg qd. […] Their levosimendan dose was reduced to 2 mg and maintained at that dose during the taper of intravenous milrinone. […] Milrinone was tapered off and the patient could be transferred out of the intensive care unit. The patient's dose of levosimendan was continued at 1 mg three times a day.

`CC1CC(=O)NN=C1c1ccc(NN=C(C#N)C#N)cc1` (single isomer, unassigned; (-)) [levosimendan, (−)-[[4-(1,4,5,6-tetrahydro-4-methyl-6-oxo-3-pyridazinyl)phenyl]hydrazono]propanedinitrile] was tested. Which cardiac rhythm (levosimendan 2 mg during taper of intravenous milrinone) did it give?
The cardiac rhythm was “regularize with a vast majority of the beats being sinus node in origin”.

What about the overall heart rate (levosimendan dose reduced to 2 mg, maintained during taper of intravenous milrinone) of the same compound?
Its overall heart rate is 80-85 bpm.

What about the heart rate (oral levosimendan 1 mg, then 2 mg, then 4 mg qd, patient on intravenous milrinone, baseline around 70 bpm) of the same compound?
The heart rate was “over 90 bpm”.
